Assay [1] addresses T1, HCV NS3/4A protease complex (BMS strain) (UniProt P27958, C1454S/C1711G, species not given).
T1 construct: for H77 and J4L6S; fused on or other part: Three-lysine solubilising tail at the C-terminus of NS4A
Description: Recombinant HCV NS3/4A protease complex FRET peptide assay. The format is biochemical, Hepatitis C virus (HCV), genotype 1a. The settings on record: NS3/4A BMS strain, activity range class. An excerpt:
Recombinant HCV NS3/4A Protease Complex FRET Peptide Assay
Serum from an HCV-infected patient was obtained from Dr. T. Wright, San Francisco Hospital. An engineered full-length cDNA (compliment deoxyribonucleic acid) template of the HCV genome (BMS strain) was constructed from DNA fragments obtained by reverse transcription-PCR (RT-PCR) of serum RNA (ribonucleic acid) and using primers selected on the basis of homology between other genotype 1a strains.
The H77 and J4L6S strains were used for production of recombinant NS3/4A protease complexes. […] Briefly, a three-lysine solubilizing tail was added at the 3′-end of the NS4A coding region. […] Briefly, the NS3/4A protease complex expression was induced with 0.5 millimolar (mM) Isopropyl β-D-1-thiogalactopyranoside (IPTG) for 22 hours (h) at 20° C. […] The cells were resuspended in lysis buffer (10 mL/g) consisting of 25 mM N-(2-Hydroxyethyl)piperazine-N′-(2-Ethane Sulfonic acid) (HEPES), pH 7.5, 20% glycerol, 500 mM Sodium Chloride (NaCl), 0.5% Triton X-100, 1 microgram/milliliter (“μg/mL”) lysozyme, 5 mM Magnesium Chloride (MgCl2), 1 μg/ml DnaseI, 5 mM β-Mercaptoethanol (βME), Protease inhibitor—Ethylenediamine Tetraacetic acid (EDTA) free (Roche), homogenized and incubated for 20 minutes (min) at 4° C. The homogenate was sonicated and clarified by ultra-centrifugation at 235000 g for 1 h at 4° C. Imidazole was added to the supernatant to a final concentration of 15 mM and the pH adjusted to 8.0. The crude protein extract was loaded on a Nickel—Nitrilotriacetic acid (Ni-NTA) column pre-equilibrated with buffer B (25 mM HEPES, pH 8.0, 20% glycerol, 500 mM NaCl, 0.5% Triton X-100, 15 mM imidazole, 5 mM βME). The sample was loaded at a flow rate of 1 mL/min. The column was washed with 15 column volumes of buffer C (same as buffer B except with 0.2% Triton X-100). The protein was eluted with 5 column volumes of buffer D (same as buffer C except with 200 mM Imidazole).
NS3/4A protease complex-containing fractions were pooled and loaded on a desalting column Superdex-S200 pre-equilibrated with buffer D (25 mM HEPES, pH 7.5, 20% glycerol, 300 mM NaCl, 0.2% Triton X-100, 10 mM βME). Sample was loaded at a flow rate of 1 mL/min. NS3/4A protease complex-containing fractions were pooled and concentrated to approximately 0.5 mg/ml.
The enzyme was stored at −80° C., thawed on ice and diluted prior to use in assay buffer. […] The sequence of this peptide is loosely based on the NS4A/NS4B natural cleavage site for the HCV NS3 protease except there is an ester linkage rather than an amide bond at the cleavage site. The peptide substrate was incubated with one of the three recombinant NS3/4A protease complexes, in the absence or presence of a compound of the present invention, and the formation of fluorescent reaction product was followed in real time using a Cytofluor Series 4000.
The reagents were as follow: HEPES and Glycerol (Ultrapure) were obtained from GIBCO-BRL. Dimethyl Sulfoxide (DMSO) was obtained from Sigma. β-Mercaptoethanol was obtained from Bio Rad.
Assay buffer: 50 mM HEPES, pH 7.5; 0.15 M NaCl; 0.1% Triton; 15% Glycerol; 10 mM βME. Substrate: 2 μM final concentration (from a 2 mM stock solution in DMSO stored at −20° C.). HCV NS3/4A protease type 1a (1b), 2–3 nM final concentration (from a 5 μM stock solution in 25 mM HEPES, pH 7.5, 20% glycerol, 300 mM NaCl, 0.2% Triton-X100, 10 mM βME).
The assay was performed in a 96-well polystyrene black plate from Falcon.

Assay [2] relates to HCV replicon in Huh7 cells. Nature of the assay: microbe, parasite or virus in culture. The class given is cell-based, strain 1b. As to conditions: Hepatitis C virus, Huh-7, 96 h; Huh7 cells expressing HCV replicon, 4 days; activity range class. An excerpt:
Generation of HCV Replicon
This system enabled us to evaluate the effects of our HCV Protease compounds on HCV RNA replication. Briefly, using the HCV strain 1b sequence described in the Lohmann paper (Assession number: AJ238799), an HCV cDNA was generated encoding the 5′ internal ribosome entry site (IRES), the neomycin resistance gene, the EMCV (encephalomyocarditis viurs)-IRES and the HCV nonstructural proteins, NS3-NS5B, and 3′ non-translated region (NTR). In vitro transcripts of the cDNA were transfected into the human hepatoma cell line, Huh7. […] Resulting cell lines were characterized for positive and negative strand RNA production and protein production over time.
Huh7 cells, constitutively expressing the HCV replicon, were grown in Dulbecco's Modified Eagle Media (DMEM) containing 10% Fetal calf serum (FCS) and 1 mg/ml G418 (Gibco-BRL). Cells were seeded the night before (1.5×10^4 cells/well) in 96-well tissue-culture sterile plates. Compound and no compound controls were prepared in DMEM containing 4% FCS, 1:100 Penicillin/Streptomysin, 1:100 L-glutamine and 5% DMSO in the dilution plate (0.5% DMSO final concentration in the assay). Compound/DMSO mixes were added to the cells and incubated for 4 days at 37° C. After 4 days, plates were rinsed thoroughly with Phosphate-Buffered Saline (PBS) (3 times 150 μl). The cells were lysed with 25 μl of a lysis assay reagent containing the FRET peptide (RET S1, as described for the in vitro enzyme assay). The lysis assay reagent was made from 5× cell Luciferase cell culture lysis reagent (Promega #E153A) diluted to 1× with distilled water, NaCl added to 150 mM final, the FRET peptide diluted to 10 μM final from a 2 mM stock in 100% DMSO. The plate was then placed into the Cytofluor 4000 instrument which had been set to 340 nm excitation/490 nm emission, automatic mode for 21 cycles and the plate read in a kinetic mode. EC50 determinations were carried out as described for the IC50 determinations. […]
The percentage inhibition was calculated using the formula below: […]
The values were graphed and analyzed using XLFit to obtain the EC50 value.
(In antiviral work, replicon cells carry a viral genome segment that copies itself.)

Where two headings read alike, the source gives them in different places.

With `C=C[C@@H]1C[C@]1(NC(=O)[C@@H]1C[C@@H](Oc2nccc3c(OC)cccc23)CN1C(=O)[C@@H](NC(=O)OC(C)(C)C)C(C)(C)C)C(=O)NS(=O)(=O)C1(CC)CC1` [Cpd 100], the IC50 in assay [1] was under 100 nM. Besides, the EC50 in assay [2] was under 100 nM.

For `C=C[C@@H]1C[C@]1(NC(=O)[C@@H]1C[C@@H](Oc2nccc3c(Cl)cccc23)CN1C(=O)[C@@H](NC(=O)OC(C)(C)C)C(C)(C)C)C(=O)NS(=O)(=O)C1(CC)CC1` [Cpd 101], the IC50 in assay [1] (read-out: IC50) was under 100 nM. Also, the EC50 in assay [2] is under 100 nM.

Turning to `C=C[C@@H]1C[C@]1(NC(=O)[C@@H]1C[C@@H](Oc2ncc(Cl)c3ccccc23)CN1C(=O)[C@@H](NC(=O)OC(C)(C)C)C(C)(C)C)C(=O)NS(=O)(=O)C1(CC)CC1` [Cpd 102], the IC50 in assay [1] is under 100 nM. Moreover, the EC50 in assay [2] lay in the range of 100 to 1000 nM.

On to `C=C[C@@H]1C[C@]1(NC(=O)[C@@H]1C[C@@H](Oc2nccc3c(OC(F)(F)F)cccc23)CN1C(=O)[C@@H](NC(=O)OC(C)(C)C)C(C)(C)C)C(=O)NS(=O)(=O)C1(CC)CC1` [Cpd 103], for which the IC50 in assay [1] (read-out: IC50) is under 100 nM. The EC50 in assay [2] lay in the range of 100 to 1000 nM.

In the case of `C=C[C@@H]1C[C@]1(NC(=O)[C@@H]1C[C@@H](Oc2nccc3c(C(F)(F)F)cccc23)CN1C(=O)[C@@H](NC(=O)OC(C)(C)C)C(C)(C)C)C(=O)NS(=O)(=O)C1(CC)CC1` [Cpd 104], the IC50 in assay [1] (read-out: IC50) is under 100 nM. The compound further came in with an EC50 in assay [2] of 100 to 1000 nM.

`C=C[C@@H]1C[C@]1(NC(=O)[C@@H]1C[C@@H](Oc2nccc3c(Cl)c(OC)ccc23)CN1C(=O)[C@@H](NC(=O)OC(C)(C)C)C(C)(C)C)C(=O)NS(=O)(=O)C1(CC)CC1` [Cpd 105]: the IC50 in assay [1] (read-out: IC50) is under 100 nM. Moreover, the EC50 in assay [2] was under 100 nM.

In the case of `C=C[C@@H]1C[C@]1(NC(=O)[C@@H]1C[C@@H](Oc2nccc3c(OC)c(Cl)ccc23)CN1C(=O)[C@@H](NC(=O)OC(C)(C)C)C(C)(C)C)C(=O)NS(=O)(=O)C1(CC)CC1` [Cpd 106], the IC50 in assay [1] (read-out: IC50) was under 100 nM. In addition, the EC50 in assay [2] is under 100 nM.

Consider `C=C[C@@H]1C[C@]1(NC(=O)[C@@H]1C[C@@H](Oc2ncc(Cl)c3cc(OC)ccc23)CN1C(=O)[C@@H](NC(=O)OC(C)(C)C)C(C)(C)C)C(=O)NS(=O)(=O)C1(CC)CC1` [Cpd 107], for which, in assay [1] (read-out: IC50), the IC50 is under 100 nM. This compound also registered an EC50 in assay [2] of under 100 nM.

As for `C=C[C@@H]1C[C@]1(NC(=O)[C@@H]1C[C@@H](Oc2nccc3c4c(ccc23)OCCO4)CN1C(=O)[C@@H](NC(=O)OC(C)(C)C)C(C)(C)C)C(=O)NS(=O)(=O)C1(CC)CC1` [Cpd 108], in assay [1] (read-out: IC50), the IC50 is under 100 nM. This compound also came in with an EC50 in assay [2] of under 100 nM.

On to `C=C[C@@H]1C[C@]1(NC(=O)[C@@H]1C[C@@H](Oc2nccc3cc(OC)c(F)cc23)CN1C(=O)[C@@H](NC(=O)OC(C)(C)C)C(C)(C)C)C(=O)NS(=O)(=O)C1(CC)CC1` [Cpd 109], for which the IC50 in assay [1] (read-out: IC50) was under 100 nM. The same compound came in with an EC50 in assay [2] of under 100 nM.

As to `C=C[C@@H]1C[C@]1(NC(=O)[C@@H]1C[C@@H](Oc2cc3c(Cl)nccc3cc2OC)CN1C(=O)[C@@H](NC(=O)OC(C)(C)C)C(C)(C)C)C(=O)NS(=O)(=O)C1(CC)CC1` [Cpd 110], the IC50 in assay [1] (read-out: IC50) was under 100 nM. Further, the EC50 in assay [2] was under 100 nM.

As to `C=C[C@@H]1C[C@]1(NC(=O)[C@@H]1C[C@@H](Oc2nccc3c(Cl)cccc23)CN1C(=O)[C@@H](NC(=O)OC(C)C)C(C)(C)C)C(=O)NS(=O)(=O)C1(CC)CC1` [Cpd 111], the IC50 in assay [1] (read-out: IC50) was under 100 nM. In assay [2], this compound returned an EC50 of under 100 nM.

Turning to `C=C[C@@H]1C[C@]1(NC(=O)[C@@H]1C[C@@H](Oc2ncc(Cl)c3ccccc23)CN1C(=O)[C@@H](NC(=O)OC(C)C)C(C)(C)C)C(=O)NS(=O)(=O)C1(CC)CC1` [Cpd 112], the IC50 in assay [1] (read-out: IC50) was under 100 nM. In assay [2], this compound had an EC50 of 100 to 1000 nM.

In the case of `C=C[C@@H]1C[C@]1(NC(=O)[C@@H]1C[C@@H](Oc2nc(Cl)cc3c(OC)cccc23)CN1C(=O)[C@@H](NC(=O)OC(C)(C)C)C(C)(C)C)C(=O)NS(=O)(=O)C1(CC)CC1` [Cpd 113], the IC50 in assay [1] was under 100 nM. The compound further came in with an EC50 in assay [2] of 100 to 1000 nM.

A word on the IC50: it is the concentration at which inhibition is half-maximal. The EC50 is the concentration at which the effect is half-maximal. A high value points to a less potent agent.

Values taken from US7135462B2, “Hepatitis C virus inhibitors” (priority 2003, dated 2006).
